According to PubChem BioAssay (NCI):
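Cultured in 96-well plates, cells were exposed to test compound for 48 hours across five concentrations. Abbreviation: GI50, concentration required for 50% inhibition of growth. TGI: concentration producing complete growth inhibition.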

Columns and labels:
Assay in all cases: NCI-60 cell line screen, 48 h
[1] = test system: SW-620 colon
[2] = test system: SNB-19 CNS
[3] = test system: SK-MEL-5 melanoma
[4] = test system: M14 melanoma
[5] = test system: OVCAR-5 ovarian
[6] = test system: SK-OV-3 ovarian
[7] = test system: HT29 colon
[8] = test system: HOP-92 NSCLC
[9] = test system: NCI-H226 lung
[10] = test system: A549 NSCLC
[11] = test system: COLO 205 colon
[12] = test system: PC-3 prostate
[13] = test system: SK-MEL-28 melanoma
[14] = test system: RXF 393 renal
[15] = test system: CAKI-1 renal
[16] = test system: SNB-75 CNS
[17] = test system: SF-268 CNS
[18] = test system: HS 578T breast
[19] = test system: UACC-257 melanoma
[20] = test system: TK-10 renal
[21] = test system: NCI-H460 lung
[22] = test system: BT-549 breast
[23] = test system: NCI-H23 lung
[24] = test system: SF-295 CNS
[25] = test system: K-562 leukemia
[26] = test system: DU-145 prostate
[27] = test system: MCF7 breast
[28] = test system: MOLT-4 leukemia
[29] = test system: A498 renal
[30] = test system: IGROV1 ovarian
[31] = test system: T-47D breast
[32] = test system: SN12C renal
[33] = test system: HL-60(TB) leukemia
[34] = test system: EKVX NSCLC
[35] = test system: MALME-3M melanoma
[36] = test system: NCI-H522 lung
[37] = test system: KM12 colon
[38] = test system: OVCAR-4 ovarian
[39] = test system: U251 CNS
[40] = test system: HOP-62 NSCLC
[41] = test system: HCT-15 colon
[42] = test system: 786-0 renal
[43] = test system: MDA-N
[44] = test system: HCC-2998 colon
[45] = test system: UO-31 renal
[46] = test system: RPMI-8226 leukemia
[47] = test system: UACC-62 melanoma
[48] = test system: HCT-116 colon
[49] = test system: NCI/ADR-RES ovarian
[50] = test system: MDA-MB-435
[51] = test system: OVCAR-3 ovarian
[52] = test system: ACHN renal
[53] = test system: OVCAR-8 ovarian
[54] = test system: LOX IMVI melanoma
[55] = test system: MDA-MB-231 breast
[56] = test system: SF-539 CNS
[57] = test system: SK-MEL-2 melanoma
[58] = test system: CCRF-CEM leukemia

NNC(=O)c1ccc[n+](CCc2ccccc2)c1
TGI [1]: > 100 µM | TGI [2]: > 100 µM | TGI [3]: > 100 µM | TGI [4]: > 100 µM | TGI [5]: > 100 µM | TGI [6]: > 100 µM | TGI [7]: > 100 µM | TGI [8]: > 100 µM | TGI [9]: > 100 µM | TGI [10]: > 100 µM | TGI [11]: > 100 µM | TGI [12]: > 100 µM | TGI [13]: > 100 µM | TGI [14]: > 100 µM | TGI [15]: > 100 µM | TGI [16]: > 100 µM | TGI [17]: > 100 µM | TGI [18]: > 100 µM | TGI [19]: > 100 µM | TGI [20]: > 100 µM | TGI [21]: > 100 µM | TGI [22]: > 100 µM | TGI [23]: > 100 µM | TGI [24]: > 100 µM | TGI [25]: > 100 µM | TGI [26]: > 100 µM | TGI [27]: > 100 µM | TGI [28]: > 100 µM | TGI [29]: > 100 µM | TGI [30]: > 100 µM | TGI [31]: > 100 µM | TGI [32]: > 100 µM | TGI [33]: > 100 µM | TGI [34]: > 100 µM | TGI [35]: > 100 µM | TGI [36]: > 100 µM | TGI [37]: > 100 µM | TGI [38]: > 100 µM | TGI [39]: > 100 µM | TGI [40]: > 100 µM | TGI [41]: > 100 µM | TGI [42]: > 100 µM | TGI [43]: > 100 µM | TGI [44]: > 100 µM | TGI [45]: > 100 µM | TGI [46]: > 100 µM | TGI [47]: > 100 µM | TGI [48]: > 100 µM | TGI [49]: > 100 µM | TGI [50]: > 100 µM | TGI [51]: > 100 µM | TGI [52]: > 100 µM | TGI [53]: > 100 µM | TGI [54]: > 100 µM | TGI [55]: > 100 µM

COc1ccccc1-c1cc(=O)c2ccc(C)nc2[nH]1
TGI [1]: > 100 µM | TGI [2]: > 100 µM | GI50 [3]: 51.6 µM | TGI [3]: > 100 µM | TGI [4]: > 100 µM | TGI [5]: > 100 µM | TGI [6]: > 100 µM | TGI [7]: > 100 µM | TGI [8]: > 100 µM | TGI [9]: > 100 µM | TGI [10]: > 100 µM | TGI [11]: > 100 µM | GI50 [12]: > 100 µM | TGI [12]: > 100 µM | TGI [13]: > 100 µM | TGI [14]: > 100 µM | TGI [15]: > 100 µM | TGI [56]: > 100 µM | TGI [17]: > 100 µM | TGI [18]: > 100 µM | TGI [19]: > 100 µM | TGI [20]: > 100 µM | GI50 [21]: 98.7 µM | TGI [21]: > 100 µM | TGI [22]: > 100 µM | TGI [23]: > 100 µM | GI50 [24]: > 100 µM | TGI [24]: > 100 µM | TGI [25]: > 100 µM | TGI [26]: > 100 µM | TGI [27]: > 100 µM | TGI [28]: > 100 µM | TGI [29]: > 100 µM | TGI [30]: > 100 µM | TGI [31]: > 100 µM | TGI [32]: > 100 µM | GI50 [33]: 73.8 µM | TGI [33]: > 100 µM | TGI [34]: > 100 µM | TGI [35]: > 100 µM | TGI [36]: > 100 µM | TGI [37]: > 100 µM | TGI [57]: > 100 µM | TGI [38]: > 100 µM | GI50 [39]: > 100 µM | TGI [39]: > 100 µM | TGI [40]: > 100 µM | TGI [41]: > 100 µM | GI50 [42]: > 100 µM | TGI [42]: > 100 µM | GI50 [43]: 20.1 µM | TGI [43]: 41.5 µM | TGI [44]: > 100 µM | TGI [45]: > 100 µM | TGI [46]: > 100 µM | TGI [47]: > 100 µM | GI50 [48]: 37.6 µM | TGI [48]: > 100 µM | TGI [49]: > 100 µM | GI50 [50]: 22 µM | TGI [50]: 48.7 µM | GI50 [51]: > 100 µM | TGI [51]: > 100 µM | TGI [52]: > 100 µM | TGI [53]: > 100 µM | TGI [54]: > 100 µM | TGI [58]: > 100 µM | TGI [55]: > 100 µM
